Measurements as given in ChEMBL document CHEMBL1201862, “PubChem BioAssay data set” (2004).
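Method: 48-hour compound exposure of cells in 96-well plates, five concentrations, linear interpolation of endpoints. GI50 is the concentration that inhibits growth by half.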 Active and inactive are the calls of the source. Rule as the data show it: active = GI50 up to about 1.1 µM and inactive = higher.

What was measured:
Assay in all cases: DTP human tumour cell line panel, 48 h
[1] = system: SK-OV-3
[2] = system: Malme-3M
[3] = system: LOX IMVI
[4] = system: HCC 2998
[5] = system: CCRF-CEM
[6] = system: EKVX
[7] = system: MDA-MB-435
[8] = system: UACC-257
[9] = system: NCI-H226
[10] = system: OVCAR-4
[11] = system: K562
[12] = system: NCI/ADR-RES
[13] = system: HCT-116
[14] = system: SNB-19
[15] = system: A549
[16] = system: OVCAR-8
[17] = system: 786-0
[18] = system: PC-3
[19] = system: SF-539
[20] = system: DU-145

Measured: GI50

O=C(Nc1ccccc1)c1cc(S(=O)(=O)Nc2n[nH]c(=O)[nH]2)c(SSc2cc(Cl)c(C(=O)Nc3ccccc3)cc2S(=O)(=O)Nc2n[nH]c(=O)[nH]2)cc1Cl
inactive: [1] > 100 µM | [2] > 100 µM | [3] > 100 µM | [4] > 100 µM | [5] > 100 µM | [6] > 100 µM | [7] > 100 µM | [8] > 100 µM | [9] > 100 µM | [10] > 100 µM | [11] 55.5 µM | [12] > 100 µM | [13] > 100 µM | [14] > 100 µM | [15] > 100 µM | [16] > 100 µM | [17] > 100 µM | [18] > 100 µM

Cc1cc(C)c2c(c1)C/C(=C\c1ccccc1C(=O)O)C2=O
inactive: [2] > 100 µM | [3] > 100 µM | [4] 33.5 µM | [5] 34.6 µM | [6] 82.6 µM | [19] 39.4 µM | [20] > 100 µM | [8] > 100 µM | [9] 56.9 µM | [10] > 100 µM | [11] > 100 µM | [13] 76.6 µM | [14] > 100 µM | [15] 68.4 µM | [16] 57 µM | [17] > 100 µM | [18] > 100 µM

O=C(Cc1nc2ccc(C(=O)c3ccccc3)cc2nc1O)C(=O)Nc1ccc(Br)cc1
inactive: [1] > 100 µM | [2] > 100 µM | [3] 79.4 µM | [6] > 100 µM | [19] > 100 µM | [7] 44.4 µM | [8] > 100 µM | [9] 78.2 µM | [10] 44.4 µM | [11] 49.2 µM | [12] > 100 µM | [13] 75.3 µM | [15] > 100 µM | [16] 96.2 µM | [17] > 100 µM | [18] 88.1 µM

CN1CCN(C(=S)N(C(=O)c2cccs2)C2CCCCC2)CC1
inactive: [2] > 100 µM | [3] > 100 µM | [4] > 100 µM | [5] > 10 µM | [7] > 100 µM | [20] > 100 µM | [8] > 100 µM | [9] > 100 µM | [10] > 100 µM | [11] > 100 µM | [14] > 100 µM | [15] > 100 µM | [16] > 100 µM | [17] > 100 µM

Cn1cnnc1Sc1c([N+](=O)[O-])ncn1C
inactive: [1] > 100 µM | [2] 16.4 µM | [3] 35.2 µM | [4] > 100 µM | [5] 29.4 µM | [6] > 100 µM | [19] > 100 µM | [8] > 100 µM | [9] > 100 µM | [10] > 100 µM | [11] 29.2 µM | [13] > 100 µM | [14] > 100 µM | [15] > 100 µM | [16] > 100 µM | [17] > 100 µM

N#CCCN(CCC#N)c1ccc(/C=C(/NC(=O)c2cc([N+](=O)[O-])ccc2Cl)C(=O)N=[N+]=[N-])cc1
inactive: [1] > 100 µM | [2] > 100 µM | [3] > 100 µM | [4] > 100 µM | [5] > 100 µM | [6] > 100 µM | [19] > 100 µM | [8] > 100 µM | [9] > 100 µM | [10] > 100 µM | [11] > 100 µM | [13] > 100 µM | [14] > 100 µM | [15] > 100 µM | [16] > 100 µM | [17] > 100 µM

NNc1nc2ccccc2c(=O)n1NC(=O)C(=O)Nc1cccc(C(F)(F)F)c1
inactive: [1] > 100 µM | [2] > 100 µM | [3] > 100 µM | [4] > 100 µM | [5] > 100 µM | [6] > 100 µM | [19] > 100 µM | [7] > 100 µM | [8] > 100 µM | [9] > 100 µM | [10] > 100 µM | [11] > 100 µM | [12] > 100 µM | [13] > 100 µM | [14] > 100 µM | [15] > 100 µM | [16] > 100 µM | [17] > 100 µM | [18] > 100 µM

CSc1ccc2c(cc1=O)C(NC(=O)c1ccccc1)CCc1cc(O)c(O)c(O)c1-2 (stereo unspecified)
inactive: [1] 5.71 µM | [2] 7.14 µM | [3] 16.4 µM | [4] 4.84 µM | [5] 6.73 µM | [6] 6.22 µM | [19] 3.15 µM | [8] 15.3 µM | [9] 21.2 µM | [10] 16.3 µM | [11] 10.9 µM | [13] 18.5 µM | [14] 5.69 µM | [15] 30.5 µM | [16] 37.4 µM | [17] 29.4 µM

CNC(N)NC
inactive: [1] > 100 µM | [2] > 100 µM | [3] > 100 µM | [4] > 100 µM | [5] > 100 µM | [6] > 100 µM | [19] > 100 µM | [8] > 100 µM | [9] > 100 µM | [10] > 100 µM | [11] > 100 µM | [13] > 100 µM | [14] > 100 µM | [15] > 100 µM | [16] > 100 µM | [17] > 100 µM

O=C1C2C(C(=O)N1c1ccccc1)C1(Br)c3ccccc3C2(Br)C2C(=O)N(c3ccccc3)C(=O)C21 (stereo unspecified)
inactive: [1] > 100 µM | [2] 30.1 µM | [3] > 31.6 µM | [4] 15 µM | [5] 26.6 µM | [6] > 31.6 µM | [19] 27.2 µM | [8] > 31.6 µM | [9] > 31.6 µM | [10] 7.21 µM | [11] 6.27 µM | [13] 28.3 µM | [14] > 31.6 µM | [15] 28.1 µM | [16] > 100 µM | [17] 20.5 µM

COc1cc(/C=C(\C#N)C(=O)c2ccccc2)ccc1O
inactive: [1] > 100 µM | [2] > 100 µM | [3] > 100 µM | [4] > 100 µM | [5] 82.8 µM | [6] > 100 µM | [19] > 100 µM | [8] > 100 µM | [9] > 100 µM | [10] > 100 µM | [11] > 100 µM | [13] > 100 µM | [14] > 100 µM | [15] > 100 µM | [16] > 100 µM | [17] > 100 µM

COc1cc2c(cc1OC)C(O)[C@H](Br)C(C)(C)O2 (stereo partly specified)
inactive: [1] > 100 µM | [2] > 100 µM | [3] > 100 µM | [4] > 100 µM | [5] > 100 µM | [6] > 100 µM | [19] > 100 µM | [8] > 100 µM | [9] > 100 µM | [10] > 100 µM | [11] > 100 µM | [13] > 100 µM | [14] > 100 µM | [15] > 100 µM | [16] > 100 µM | [17] > 100 µM
